# Experimental data published in patent US6277825A (priority 1999, dated 2001).
# Where a SMILES comes first, the peptide text is derived from it. Where no end group is shown, it is not given here. [ ]: non-standard residue; d: D form. Gla = N[C@@H](CC(C(=O)O)C(=O)O)C(=O)O
# System: not given
# Conditions: Frings audiogenic, mouse, tissue homogenate
row,Compound,T1/2
1,CC[C@H](C)[C@H](NC(=O)[C@H](CC(N)=O)NC(=O)[C@H](CCC(=O)O)NC(=O)[C@H](CCCNC(=N)N)NC(=O)[C@H](C)NC(=O)[C@H](CC(C)C)NC(=O)[C@H](CCC(=O)O)NC(=O)[C@H](C)NC(=O)[C@H](C)NC(=O)[C@H](CCSC)NC(=O)[C@H](CCCCN)NC(=O)[C@H](C)NC(=O)[C@@H](NC(=O)[C@H](CCC(=O)O)NC(=O)[C@H](CCC(=O)O)NC(=O)[C@H](CCC(=O)O)NC(=O)CN)C(C)C)C(=O)N[C@@H](C)C(=O)N[C@@H](CCCCN)C(=O)NCC(=O)N[C@H]1CSSC[C@@H](C(=O)N[C@@H](Cc2ccc(O)cc2)C(=O)N2CCC[C@H]2C(=O)O)NC(=O)[C@H](CC(N)=O)NC(=O)[C@H](C(C)C)NC(=O)[C@H](CCCCN)NC1=O [ECon R],2.4 min

# System: NMDA receptor
# Format: binding
# Conditions: not given
row,Compound,IC50
1,"(A^7,10,14)2-17: A^7,10,14 Con G with residue 1 deleted (EEELQANQALIRAKSN; ends and bridges not checked; UniProt P07231 81-97, looked up, variant E7A E10A E14A G1*)",inactive
2,"(A^7,10,14)4-17: A^7,10,14 Con G with residues 1-3 deleted (ELQANQALIRAKSN; ends and bridges not checked; UniProt P07231 81-97, looked up, variant E7A E10A E14A del1-3)",inactive
3,"(A^7,10,14)6-17: A^7,10,14 Con G with residues 1-5 deleted (QANQALIRAKSN; ends and bridges not checked; UniProt P07231 81-97, looked up, variant E7A E10A E14A del1-5)",inactive
4,"(A^7,10,14)5-17: A^7,10,14 Con G with residues 1-4 deleted (LQANQALIRAKSN; ends and bridges not checked; UniProt P07231 81-97, looked up, variant E7A E10A E14A del1-4)",inactive
5,"(A^7,10,14)3-17: A^7,10,14 Con G with residues 1-2 deleted (EELQANQALIRAKSN; ends and bridges not checked; UniProt P07231 81-97, looked up, variant E7A E10A E14A del1-2)",inactive

# Same assay, conditions: read-out: IC50
row,Compound,IC50
1,CC[C@H](C)[C@H](NC(=O)[C@H](CC(C)C)NC(=O)[C@H](CC(C(=O)O)C(=O)O)NC(=O)[C@H](CCC(N)=O)NC(=O)[C@H](CC(N)=O)NC(=O)[C@H](CC(C(=O)O)C(=O)O)NC(=O)[C@H](CCC(N)=O)NC(=O)[C@H](CC(C)C)NC(=O)[C@H](CC(C(=O)O)C(=O)O)NC(=O)[C@H](Cc1ccc(O)cc1)NC(=O)[C@H](CCC(=O)O)NC(=O)CN)C(=O)N[C@@H](CCCNC(=N)N)C(=O)N[C@@H](CC(C(=O)O)C(=O)O)C(=O)N[C@@H](CCCCN)C(=O)N[C@@H](CO)C(=O)N[C@@H](CC(N)=O)C(N)=O [Y^3] (H-GEY[Gla]LQ[Gla]NQ[Gla]LIR[Gla]KSN-NH2; N-terminus assumed),960 nM
2,"CC[C@H](C)[C@H](NC(=O)[C@H](CC(C)C)NC(=O)[C@H](Cc1ccc(O)cc1)NC(=O)[C@H](CCC(N)=O)NC(=O)[C@H](CC(N)=O)NC(=O)[C@H](C)NC(=O)[C@H](CCC(N)=O)NC(=O)[C@H](CC(C)C)NC(=O)[C@H](CC(C(=O)O)C(=O)O)NC(=O)[C@H](CC(C(=O)O)C(=O)O)NC(=O)[C@H](CCC(=O)O)NC(=O)CN)C(=O)N[C@@H](CCCNC(=N)N)C(=O)N[C@@H](CC(C(=O)O)C(=O)O)C(=O)N[C@@H](CCCCN)C(=O)N[C@@H](CO)C(=O)N[C@@H](CC(N)=O)C(N)=O [A^7, Y^10] (H-GE[Gla][Gla]LQANQYLIR[Gla]KSN-NH2; N-terminus assumed)",79 nM
3,CC[C@H](C)[C@H](NC(=O)[C@H](CC(C)C)NC(=O)[C@H](CC(C(=O)O)C(=O)O)NC(=O)[C@H](CCC(N)=O)NC(=O)[C@H](CC(N)=O)NC(=O)[C@H](CC(C(=O)O)C(=O)O)NC(=O)[C@H](CCC(N)=O)NC(=O)[C@H](CC(C)C)NC(=O)[C@H](Cc1ccc(O)cc1)NC(=O)[C@H](CC(C(=O)O)C(=O)O)NC(=O)[C@H](CCC(=O)O)NC(=O)CN)C(=O)N[C@@H](CCCNC(=N)N)C(=O)N[C@@H](CC(C(=O)O)C(=O)O)C(=O)N[C@@H](CCCCN)C(=O)N[C@@H](CO)C(=O)N[C@@H](CC(N)=O)C(N)=O [E^4] (H-GE[Gla]YLQ[Gla]NQ[Gla]LIR[Gla]KSN-NH2; N-terminus assumed),≥ 20000 nM
4,"CC[C@H](C)[C@H](NC(=O)[C@H](CC(C)C)NC(=O)[C@H](C)NC(=O)[C@H](CCC(N)=O)NC(=O)[C@H](CC(N)=O)NC(=O)[C@H](C)NC(=O)[C@H](CCC(N)=O)NC(=O)[C@H](CC(C)C)NC(=O)[C@H](CC(C(=O)O)C(=O)O)NC(=O)[C@H](CC(C(=O)O)C(=O)O)NC(=O)[C@H](CCC(=O)O)NC(=O)CN)C(N)=O [(A^7,10)1-12] (H-GE[Gla][Gla]LQANQALI-NH2; N-terminus assumed)",300 nM
5,"CC[C@H](C)[C@H](NC(=O)[C@H](CC(C)C)NC(=O)[C@H](C)NC(=O)[C@H](CCC(N)=O)NC(=O)[C@H](CC(N)=O)NC(=O)[C@H](C)NC(=O)[C@H](CCC(N)=O)NC(=O)[C@H](CC(C)C)NC(=O)[C@H](CC(C(=O)O)C(=O)O)NC(=O)[C@H](CC(C(=O)O)C(=O)O)NC(=O)[C@H](CCC(=O)O)NC(=O)CN)C(=O)N[C@@H](CCCNC(=N)N)C(N)=O [(A^7,10)1-13] (H-GE[Gla][Gla]LQANQALIR-NH2; N-terminus assumed)",253 nM
